Target: T1, Gamma-aminobutyric acid receptor subunit alpha-1/beta-2/gamma-2 (Homo sapiens, UniProt P14867+P18507+P47870)
T1 sequence (P14867 whole entry): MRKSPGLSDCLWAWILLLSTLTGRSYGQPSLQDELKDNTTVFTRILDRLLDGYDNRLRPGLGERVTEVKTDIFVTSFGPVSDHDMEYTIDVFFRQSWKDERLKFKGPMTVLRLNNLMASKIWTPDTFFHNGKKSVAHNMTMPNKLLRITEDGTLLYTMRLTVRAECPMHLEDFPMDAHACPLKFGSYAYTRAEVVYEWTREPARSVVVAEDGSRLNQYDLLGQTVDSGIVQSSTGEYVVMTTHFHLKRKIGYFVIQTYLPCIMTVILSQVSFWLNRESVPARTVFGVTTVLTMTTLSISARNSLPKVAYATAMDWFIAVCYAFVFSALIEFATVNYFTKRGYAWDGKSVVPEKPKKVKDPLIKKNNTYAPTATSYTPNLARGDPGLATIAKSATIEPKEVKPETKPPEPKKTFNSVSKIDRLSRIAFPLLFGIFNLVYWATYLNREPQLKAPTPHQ
T1 sequence (P18507 whole entry): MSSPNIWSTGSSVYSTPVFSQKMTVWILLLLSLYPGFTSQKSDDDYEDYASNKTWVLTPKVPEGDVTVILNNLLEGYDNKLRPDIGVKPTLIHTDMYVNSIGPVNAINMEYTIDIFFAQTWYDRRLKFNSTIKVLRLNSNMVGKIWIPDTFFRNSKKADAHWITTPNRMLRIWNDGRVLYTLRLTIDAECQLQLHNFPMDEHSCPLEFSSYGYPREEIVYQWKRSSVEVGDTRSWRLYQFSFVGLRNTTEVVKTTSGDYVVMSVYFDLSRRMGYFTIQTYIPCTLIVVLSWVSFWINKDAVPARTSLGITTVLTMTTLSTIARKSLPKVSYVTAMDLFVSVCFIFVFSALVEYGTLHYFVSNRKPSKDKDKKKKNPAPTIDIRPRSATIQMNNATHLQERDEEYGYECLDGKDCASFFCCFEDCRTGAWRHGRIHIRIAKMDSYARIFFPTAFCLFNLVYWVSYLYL
T1 sequence (P47870 whole entry): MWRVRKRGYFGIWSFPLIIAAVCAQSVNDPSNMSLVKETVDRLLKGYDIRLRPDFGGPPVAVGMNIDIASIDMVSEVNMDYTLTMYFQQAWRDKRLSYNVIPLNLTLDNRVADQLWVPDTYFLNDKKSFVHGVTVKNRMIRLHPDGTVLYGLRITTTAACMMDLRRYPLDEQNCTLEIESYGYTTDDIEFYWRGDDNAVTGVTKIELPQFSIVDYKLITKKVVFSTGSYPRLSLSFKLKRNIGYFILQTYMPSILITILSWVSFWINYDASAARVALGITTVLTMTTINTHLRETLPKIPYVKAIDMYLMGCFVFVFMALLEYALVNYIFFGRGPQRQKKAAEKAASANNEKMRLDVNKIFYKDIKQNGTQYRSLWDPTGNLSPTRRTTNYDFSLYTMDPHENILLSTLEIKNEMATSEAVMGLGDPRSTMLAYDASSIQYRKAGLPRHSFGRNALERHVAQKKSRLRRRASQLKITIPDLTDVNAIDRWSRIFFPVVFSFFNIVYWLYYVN
Experiment: Agonist activity at human GABA-A alpha-1-beta-2-gamma-2 receptor expressed in Xenopus laevis

Compound | EC50 [µM]
CCOC(=O)c1cncn1[C@H](C)c1ccc(C2(C(F)(F)F)N=N2)cc1 | 30
CCOC(=O)c1cncn1[C@@H](C)c1ccc(C2(C(F)(F)F)N=N2)cc1 | 6.4

— BindingDB's records for doi:10.1021/jm100498u (Massachusetts General Hospital, 2010)
